US11931328B2, “Stabilized formulations of 4-amino-3-substituted butanoic acid derivatives” (AMNEAL PHARMACEUTICALS LLC, priority 2019, dated 2024)
Entries after “also recorded” stand apart in the source; their conditions may differ. Read-outs that look alike come from different tables or passages of the source.

Test: Accelerated stability studies of API/stabilizer preparations (lactam impurity A by HPLC)
Assay type: physicochemical

SMILES | effect of EUDRAGIT E on formation of lactam impurity A | effect of EUDRAGIT E on formation of lactam impurity A (with EUDRAGIT E PO 1, 5, 10% (m/m), stored at 60° C. in closed glass vials, HPLC)
NCC1(CC(=O)O)CCCCC1 [gabapentin] | destabilization effect | 
NCC(CC(=O)O)c1ccc(Cl)cc1 (stereo not drawn) [baclofen, 4-amino-3-(4-chlorophenyl)butanoic acid] |  | stabilized; also recorded: stabilization effect
CC(C)C[C@H](CN)CC(=O)O [pregabalin] | destabilization effect | 
